In brackets after ≈: the same amount, converted by molar mass. Where two headings read alike, the source gives them in different places.
How the values were obtained:
physchem = type: physicochemical; settings: thermodynamic from solid, read-out: CFZ saturation solubility
[1] = Stress testing of micronized CFZ with excipient blends (compatibility, HPLC assay and related substances); type: physicochemical
Protocol: Clofazimine degradation was assessed using the high pressure liquid chromatography (HPLC) method published in the United States Pharmacopeia monograph for the drug (U.S.P., 2021) The mobile phase consisted of a 65:35 mixture of acetonitrile and an aqueous buffer consisting of 4.5 g/L sodium dodecyl sulfate, 1.7 g/L tetrabutylammonium hydrogen sulfate and 21.8 g/L Na2HPO4 adjusted to pH 3.0. Flow rate was 1.0 mL/min and infection volume was 20 μL. A LiChromspher® RP-8 100 column (250×4.6, 5 μm) (Millipore Sigma) was used. Measurements were performed using an Agilent 1100 HPLC with diode array detector set at 280 nm. […] Hydrophobic PTFE 0.22 μm filters were used for sample filtration prior to analysis.
Stress testing of micronized CFZ in combination with commercially available tableting excipient blends was performed to establish potential mechanisms of drug degradation and streamline excipient selection for mini-tablet preparation. Two different blends were assessed: Prosolv® EasyTab SP (JRS Pharma) and Ludipress® (BASF).
Additionally, Eudragit® E PO was assessed, as a potential candidate for functional coating of the mini-tablets to prevent CFZ release in the saliva and subsequent staining of the mouth. Binary mixtures of micronized CFZ and excipient blends and micronized CFZ and Eudragit E PO were prepared at 1:1 weight ratios. Blends of CFZ with Prosolv EasyTab SP, Ludipress, or Eudragit E PO were left open or in closed HPDE vials and stored for 18 days at 70° C./20% relative humidity (RH) or 70° C./75% RH, which was the thermal equivalent of 6 months of storage. As a control, micronized CFZ alone and each excipient blend alone were stored open at each condition.
HPLC analysis was performed on day 0 for CFZ alone and CFZ with each excipient, as well as on day 18 for the same samples at each temperature and humidity condition. Assay values (% recovery) for all samples was determined by comparing peak area to a reference standard and correcting for sample water content measured by Karl Fischer titration method, and related substances were reported by relative retention time (RRT) to the reference CFZ peak.

[2] = Particle size distribution of milled powder by laser diffraction; type: physicochemical; settings: jet-milled powder, RODOS 4 bar
Protocol: Clofazimine (CFZ) (Midas Pharma GmbH) was micronized by Lonza Group AG using a 10-inch spiral jet mill at 3 kg/hr feed rate and 100 psi grinding pressure. Particle size distribution of the milled powder was determined using a laser diffractor (HELOS, Sympatec GmbH) with RODOS dry powder disperser set at 4 bar dispersion pressure and 20% rotation.

[3] = 1 mg/kg per day, average 105.6 days, average age 5.8 years; cited from earlier work

CC(C)/N=c1\cc2n(-c3ccc(Cl)cc3)c3ccccc3nc-2cc1Nc1ccc(Cl)cc1 [CFZ, clofazimine]
solubility (physchem; fassgf or other biorelevant, in FaSSGF): 0.092 ± 0.004 µg/mL (≈ 0.194 µM) | solubility (physchem; fassgf or other biorelevant, in FeSSGF): 20.1 ± 1.86 µg/mL (≈ 42.5 µM) | solubility (physchem; fessif, in FeSSIF): 14.9 ± 1.5 µg/mL (≈ 31.5 µM) | Impurity (% Area) RRT 0.82 ([1]; 70 C./20% RH, Open, 18 days): 0.113 % Area | Impurity (% Area) RRT 0.88 ([1]; 70 C./20% RH, Open, 18 days): 0.117 % Area | Impurity (% Area) RRT 0.82 ([1]; 70 C./75% RH, Open, 18 days): 0.096 % Area | Impurity (% Area) RRT 0.88 ([1]; 70 C./75% RH, Open, 18 days): 0.126 % Area | Impurity (% Area) RRT 0.94 ([1]; 70 C./75% RH, Open, 18 days): <0.05 % Area | Impurity (% Area) RRT 0.82 ([1]; Initial (day 0)): 0.096 % Area | Impurity (% Area) RRT 0.88 ([1]; Initial (day 0)): 0.109 % Area | X10 diameter [2]: 0.66 μm | X50 diameter [2]: 1.47 μm | X90 diameter [2]: 3.50 μm | adverse effects [3]: limited to skin discoloration and gastrointestinal symptoms
